Measured values published in patent US20230011916A1, “METHODS OF CANCER TREATMENT USING ANTI-OX40 ANTIBODIES IN COMBINATION WITH PI3 KINASE DELTA INHIBITORS” (BEIGENE, LTD., priority 2019, published 2023).

Assays:
Format in all cases: in vivo, mouse
[1] = system: CT26WT cells; test: CT26WT syngeneic colon carcinoma model in BALB/c mice; conditions: Compound 2A 10 mg/kg p.o.
Method: CT26WT cells are of colon cancer origin. Female BALB/c mice were subcutaneously implanted with 1×10^5 CT26WT cells in 100 μL PBS in the right flank. After inoculation, mice were randomized into 4 groups according to inoculation order. The mice were treated with vehicle (0.5% MC) as a control. Antibody 1A7.grl (sequence disclosed in US2015/0307617) was confirmed to bind mouse OX40 in house.
[…] Compound 2A was administered as single agent at 10 mg/kg twice a day by oral gavage. The 1A7.gr1 antibody in combination with Compound 2A was administered as combination therapy at the same doses described above for each therapeutic given as a single agent. Tumor volume was determined twice weekly, and the TGI calculated as described above.

[2] = system: EMT-6 cells; test: EMT-6 syngeneic breast cancer model in BALB/c mice
Method: EMT-6 cells are of murine breast cancer origin. Female BALB/c mice were implanted intramammary with 5×10^4 EMT-6 cells per 100 μL PBS mice in the second right papilla. After inoculation, mice were randomized into 4 groups with 25 animals in each group according to inoculation order.
The mice were treated with vehicle (0.5% MC), OX86 (a murine specific anti-OX40 antibody), Compound 1 (PI3Kdelta inhibitor), and the combination of OX86 and Compound 1, respectively. OX86 was given at 0.4 mg/kg once per week (QW) by intraperitoneal (i.p.) injection, and Compound 1 was administered at 30 mg/kg twice per day (BID) by oral gavage (p.o.). Tumor volume was determined twice weekly and tumor growth inhibition was determined using the formula described in Example 14 above.

[3] = system: A20 cells; test: A20 syngeneic B cell lymphoma model in BALB/c mice; conditions: Compound 1 10 mg/kg p.o.
Method: A20 cells are of B cell lymphoma origin. Female BALB/c mice were subcutaneously implanted with 1×10^5 A20 cells in 150 μL PBS mice in the right flank. After inoculation, mice were randomized into 4 groups with 25 animals in each group according to inoculation order. The mice were treated with vehicle (0.5% MC), OX86 (a murine specific anti-OX40 antibody), Compound 1, and the combination of OX86 and Compound 1. OX86 was given at 0.4 mg/kg once a week by intraperitoneal injection, and Compound 1 was administered at 10 mg/kg twice a day by oral gavage. Tumor volume was determined twice weekly and the TGI calculated as described above.

[4] = OX86 0.4 mg/kg QW i.p., Compound 1 30 mg/kg BID p.o.

| SMILES | Mean Tumor Volume on Day 25 (mean ± SEM) ([1]; 1A7.gr1 2 mg/kg QW i.p.) [mm^3] | Tumor Free Animals at Day 35 ([1]; 1A7.gr1 2 mg/kg QW i.p.) [%] | TGI on Day 25 ([1]; 1A7.gr1 2 mg/kg QW×4 i.p.) [%] | Mean Tumor Volume on Day 22 (mean ± SEM) [2, 4] [mm^3] | Tumor Free Animal [2, 4] [%] | TGI on Day 22 ([2]; OX86 0.4 mg/kg QW×4 i.p., Compound 1 30 mg/kg BID×22 p.o.) [%] | Mean Tumor Volume on Day 26 (mean ± SEM) ([3]; OX86 0.4 mg/kg QW i.p.) [mm^3] | Tumor Free Animals at Day 47 ([3]; OX86 0.4 mg/kg QW i.p.) [%] | TGI on Day 26 ([3]; OX86 0.4 mg/kg QW×4 i.p.) [%] |
| --- | --- | --- | --- | --- | --- | --- | --- | --- | --- |
| CC(C)Oc1c([C@H](C)c2nc(Cl)c3c(N)nccn23)cc(Cl)c(F)c1-c1ccc(C(F)(F)F)nc1 [Compound 2A, 1-chloro-3-(1-(5-chloro-4-fluoro-2-isopropoxy-3-(6-(trifluoromethyl)pyridin-3-yl)phenyl)ethyl) imidazo[1,5-a]pyrazin-8-amine] | 941.6 ± 207.8 | 7 | 58 |  |  |  |  |  |  |
| Cc1nc([C@@H](C)c2cc(Cl)c(F)c(C(=O)NCCN3CCN(C)CC3)c2OC(C)C)n2ccnc(N)c12 [Compound 1, (S)-3-(1-(8-amino-1-methylimidazo[1,5-a]pyrazin-3-yl)ethyl)-5-chloro-6-fluoro-2-isopropoxy-N-(2-(4-methylpiperazin-1-yl)ethyl)benzamide] |  |  |  | 758.1 ± 100.6 | 4 | 26 | 683.9 ± 89.7 | 0 | 7 |
